Article PMC6161027, “In Vitro Stimulation of Multidrug Resistance-Associated Protein 2 Function Is Not Reproduced In Vivo in Rats” (Pharmaceutics, 2018)
Several values for one entry are separate records, joined by “and”; a condition that tells them apart may be missing. Equal values may be shown once. Entries after “also recorded” stand apart in the source; their conditions may differ. Where a name gives a salt, the structure may show the parent alone. Read-outs that look alike come from different tables or passages of the source. Each block holds one compound with its values, some of them ahead of it.

Key:
rat Mrp2 [1] = target: T1, rat Mrp2 (Rattus norvegicus, UniProt Q63120)
Mrp2 [2] = target: T2, Mrp2 (Rattus norvegicus, UniProt Q63120); details: in vivo
human MRP2 = details: cited from earlier work; for stimulation of CP-I transport in human MRP2 vesicles / effect on MRP2 when CP-I is used as probe substrate: result in words ref 10
rat Mrp2 [3] = target: T1, rat Mrp2; details: for effect on rat Mrp2-mediated CP-I transport in vitro: 15 min, result in words
Protocol: Rat Mrp2-mediated CP-I transport was measured in inside-out membrane vesicles. Mrp2 vesicle protein (50 µg/well) were preincubated with modulators at above reported concentrations at 37 °C and reaction was started by adding CP-I (5 µM) and incubated for 15 min. NP; not performed. For more on experimental details refer to Section 2.3. Dotted line represents basal level (100%) of CP-I uptake in control wells in the presence of ATP with no modulators added. All data values presented as mean and SD of single experiment performed in triplicate wells.

rat Mrp2 [4] = target: T1, rat Mrp2; details: for % Net decrease in ATP-dependent CP-I uptake in presence of bilirubin: bilirubin 10 µM, uptake with modulator alone as control, duplicate wells
Protocol: Figure 3 Effect of bilirubin on the transport of CP-I using rat Mrp2 vesicles in the presence and absence of modulators. Rat Mrp2 vesicles (50 µg/well) were preincubated with and without bilirubin (10 µM) and modulators for 3 min at 37 °C. % Net decrease in ATP-dependent CP-I uptake in presence of bilirubin was calculated by taking CP-I uptake values in presence of modulators as control. All data values presented as mean of single experiment performed in duplicate wells.

[5] = Plasma and liver concentrations of modulators after i.v. infusion in rats; format: in vivo; details: Sprague-Dawley, rat; for Cmax: plasma, iv; for Kp at 3 h: liver at terminal time point (3 h)
in vitro = details: tissue homogenate
Mrp2 [6] = target: T2, Mrp2; assay: Biliary and renal secretion of endogenous CP-I and CP-III in bile duct cannulated rats before and after modulators; details: for Bile Flow: cumulative volume / total collection time, mean ± SD, three animals; for Mrp2-mediated CP-I transport in vivo (biliary clearance, cumulative amount in bile) before and after treatment: bile duct cannulated rats
Mrp2 [7] = tested on: Mrp2; parameters: method as in PMID 19118132; details: cited from earlier work
Oatp = assay: CP-I uptake in suspended rat hepatocytes with and without rifamycin SV; format: cell-based; details: rifamycin SV 1 mM, CP-I 0.5 µM, 37 °C, result in words
Mrp2 [8] = tested on: Mrp2; parameters: method as in PMID 27964938; details: in the presence of metformin, plasma exposure not affected ref 9; cited from earlier work
Mrp2 [9] = tested on: Mrp2; parameters: method as in PMID 15194559; details: rats ref 17; cited from earlier work
[10] = tested on: flurbiprofen metabolism in liver microsome; parameters: method as in PMID 11457649, PMID 9521735; details: in presence of dapsone ref 22, 23; cited from earlier work
[11] = parameters: method as in PMID 11457649, PMID 9521735; details: humans, in presence of dapsone ref 22, 23; cited from earlier work
[12] = rat, in vivo

T1 sequence (Q63120 whole entry): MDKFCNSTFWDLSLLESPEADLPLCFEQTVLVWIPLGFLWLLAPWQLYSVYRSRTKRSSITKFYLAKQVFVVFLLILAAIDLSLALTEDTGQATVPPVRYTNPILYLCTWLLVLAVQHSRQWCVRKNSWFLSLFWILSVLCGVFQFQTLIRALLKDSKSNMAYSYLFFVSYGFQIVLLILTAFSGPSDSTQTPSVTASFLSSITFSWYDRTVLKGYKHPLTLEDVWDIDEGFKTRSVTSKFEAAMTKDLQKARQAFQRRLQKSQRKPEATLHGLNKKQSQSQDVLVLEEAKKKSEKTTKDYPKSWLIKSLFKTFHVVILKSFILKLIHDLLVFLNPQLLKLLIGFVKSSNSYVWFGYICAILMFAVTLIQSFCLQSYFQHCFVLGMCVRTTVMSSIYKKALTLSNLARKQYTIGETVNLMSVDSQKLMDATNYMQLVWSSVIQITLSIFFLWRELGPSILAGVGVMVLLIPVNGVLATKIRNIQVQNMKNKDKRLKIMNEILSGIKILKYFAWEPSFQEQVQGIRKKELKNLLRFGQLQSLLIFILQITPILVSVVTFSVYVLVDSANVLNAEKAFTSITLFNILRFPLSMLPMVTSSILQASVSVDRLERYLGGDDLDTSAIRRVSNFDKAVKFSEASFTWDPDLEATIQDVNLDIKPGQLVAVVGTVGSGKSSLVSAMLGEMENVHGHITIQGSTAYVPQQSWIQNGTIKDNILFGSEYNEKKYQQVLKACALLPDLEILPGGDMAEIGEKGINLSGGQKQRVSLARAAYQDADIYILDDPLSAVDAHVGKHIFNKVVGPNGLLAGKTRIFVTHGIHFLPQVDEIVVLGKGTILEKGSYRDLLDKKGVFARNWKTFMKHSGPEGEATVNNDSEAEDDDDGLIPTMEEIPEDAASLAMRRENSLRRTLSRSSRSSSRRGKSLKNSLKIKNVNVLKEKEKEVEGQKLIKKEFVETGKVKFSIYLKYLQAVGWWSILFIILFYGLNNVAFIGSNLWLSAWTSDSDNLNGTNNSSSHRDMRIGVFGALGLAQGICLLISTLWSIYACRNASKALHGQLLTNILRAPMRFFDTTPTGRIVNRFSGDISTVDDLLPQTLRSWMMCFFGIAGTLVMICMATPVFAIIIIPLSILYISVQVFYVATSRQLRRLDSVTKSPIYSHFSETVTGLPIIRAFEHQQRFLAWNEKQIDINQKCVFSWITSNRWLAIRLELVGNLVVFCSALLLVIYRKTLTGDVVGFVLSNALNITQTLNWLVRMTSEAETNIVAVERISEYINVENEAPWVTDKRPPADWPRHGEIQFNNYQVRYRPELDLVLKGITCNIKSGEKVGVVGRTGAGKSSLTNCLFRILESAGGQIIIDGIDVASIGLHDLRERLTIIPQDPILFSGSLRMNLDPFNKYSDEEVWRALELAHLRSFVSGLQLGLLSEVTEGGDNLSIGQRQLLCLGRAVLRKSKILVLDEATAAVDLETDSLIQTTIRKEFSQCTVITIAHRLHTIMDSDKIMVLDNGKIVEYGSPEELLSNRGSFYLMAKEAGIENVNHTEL
T2 sequence (Q63120 whole entry): as above

Km (rat Mrp2 [1]): 15 ± 6 µM
apparent Vmax (rat Mrp2 [1]; CP-I uptake, rat Mrp2 membrane vesicles, 37 °C, 15 min, mean ± SD): 161 ± 20 pmol/min/mg protein
ATP over AMP ratio of CP-I uptake (rat Mrp2 [1]; rat Mrp2 membrane vesicles): 23
average biliary clearance relative to CP-III (Mrp2 [2]): four-fold higher
basal level excreted in rat bile in 2 h (Mrp2 [2]): about 600 pmoles
Compound: coproporphyrin-I [CP-I]
Km (human MRP2): 7.7 µM

effect on rat Mrp2-mediated CP-I transport in vitro (rat Mrp2 [3]; CP-I 5 µM): stimulated
stimulation of Mrp2 mediated transport of CP-I (rat Mrp2 [3]; modulator 1 µM, CP-I 5 µM): > 1.5 fold
% Net decrease in ATP-dependent CP-I uptake in presence of bilirubin (rat Mrp2 [4]; modulator 100 µM): 17% and 12%
concentration at 2 h ([5]; intravenous, 1 mg/kg i.v., liver homogenate, LC-MS/MS, read-out: Liver Total Concentrations): 197 µM
concentration at 2 h ([5]; liver (unbound), intravenous, 1 mg/kg i.v., Fu,liver x total liver concentration, read-out: Liver Unbound Concentrations): 1.86 µM
Kp at 2 h ([5]; liver/plasma, intravenous, 1 mg/kg i.v., liver at terminal time point (2 h), read-out: Liver to Plasma Ratio): 1.2
Cmax ([5]; 1 mg/kg i.v.): 165 µM
fraction unbound at 6 h, 10 µM (in vitro): 0.0094
Bile Flow (Mrp2 [6]; after progesterone 1 mg/kg i.v.): 1.62 ± 0.39 mL/h
Mrp2-mediated CP-I transport in vivo (biliary clearance, cumulative amount in bile) before and after treatment (Mrp2 [6]; result in words): did not stimulate
biliary secretion of CP-III (Mrp2 [6]; progesterone 1 mg/kg, from 0.17 to 1.5 h, result in words): significant decrease
Compound: CC(=O)[C@H]1CC[C@H]2[C@@H]3CCC4=CC(=O)CC[C@]4(C)[C@H]3CC[C@]12C [Progesterone, progesterone]
stimulation of CP-I transport in human MRP2 vesicles (human MRP2): significant stimulation

Compound: COc1ccc2c(c1)c(CC(=O)O)c(C)n2C(=O)c1ccc(Cl)cc1 [indomethacin]
decrease of E17βG half-life (Mrp2 [7]; rats ref 16): 40%
effect on E17βG biliary clearance (Mrp2 [7]; rats, result in words ref 16): increases
effect on MRP2 when CP-I is used as probe substrate (human MRP2): inhibitors

urinary clearance relative to CP-I (Mrp2 [6]; control experiments): three-fold higher
basal level excreted in rat bile in 2 h (Mrp2 [6]; endogenous, no modulator): ~1200 pmol
plasma AUC (0–2 h), basal (Mrp2 [6]; endogenous, no modulator): ~9.5 nM·h
basal plasma levels relative to CP-I (Mrp2 [6]; rats): three-four times higher
Compound: coproporphyrin-III [CP-III]

effect on CP-I uptake in isolated rat hepatocytes (Oatp): rifamycin sensitive
Compound: CO[C@H]1/C=C/O[C@@]2(C)Oc3c(C)c(O)c4c(O)c(cc(O)c4c3C2=O)NC(=O)/C(C)=C\C=C\[C@H](C)[C@H](O)[C@@H](C)[C@@H](O)[C@@H](C)[C@H](OC(C)=O)[C@@H]1C [rifamycin, rifamycin SV]

Compound: CN(C)C(=N)N=C(N)N [metformin]
increase of atorvastatin liver concentration (Mrp2 [8]): 1.64 fold

Compound: CCc1oc2ccccc2c1C(=O)c1cc(Br)c(O)c(Br)c1 [benzbromarone]
effect on MRP2 when CP-I is used as probe substrate (human MRP2): inhibitors

effect on in vitro stimulation of Mrp2-mediated CP-I transport (rat Mrp2 [4]; 10 µM, result in words): suppressed
Compound: C=CC1=C(C)/C(=C/c2[nH]c(Cc3[nH]c(/C=C4\NC(=O)C(C)=C4C=C)c(C)c3CCC(=O)O)c(CCC(=O)O)c2C)NC1=O [bilirubin]

Compound: CC1(C)S[C@@H]2[C@H](NC(=O)Cc3ccccc3)C(=O)N2[C@H]1C(=O)O [benzyl penicillin]
transient enhancement of biliary clearance of glutathione (GSH) (Mrp2 [9]): about four-fold

Compound: Nc1ccc(S(=O)(=O)c2ccc(N)cc2)cc1 [dapsone]
stimulation of flurbiprofen metabolism [10]: two-fold
increase in flurbiprofen clearance [11]: 10%

Compound: O=C1c2c(O)ccc(O)c2C(=O)c2c(NCCNCCO)ccc(NCCNCCO)c21 [Mitoxantrone, Mitoxantrone hydrochloride]
concentration from which in vitro stimulation started (rat Mrp2 [3]): ≥ 1 µM
effect on rat Mrp2-mediated CP-I transport in vitro (rat Mrp2 [3]; CP-I 5 µM): strongest stimulator; also recorded: stimulated
concentrations giving inhibition of Mrp2 mediated CP-I transport (rat Mrp2 [3]; bell-shaped curve, higher concentrations): > 250 µM
concentrations giving stimulation of Mrp2 mediated CP-I transport (rat Mrp2 [3]; bell-shaped curve, lower concentrations): up to 250 µM
% Net decrease in ATP-dependent CP-I uptake in presence of bilirubin (rat Mrp2 [4]; modulator 200 µM): 34% and 42%
concentration at 3 h ([5]; intravenous, 6 mg/kg i.v., liver homogenate, LC-MS/MS, read-out: Liver Total Concentrations): 854 µM
concentration at 3 h ([5]; intravenous, 15 mg/kg i.v., liver homogenate, LC-MS/MS, read-out: Liver Total Concentrations): 950 µM
concentration at 3 h ([5]; liver (unbound), intravenous, 6 mg/kg i.v., Fu,liver x total liver concentration, read-out: Liver Unbound Concentrations): 0.26 µM
Kp at 3 h ([5]; liver/plasma, intravenous, 6 mg/kg i.v., read-out: Liver to Plasma Ratio): 199
Kp at 3 h ([5]; liver/plasma, intravenous, 15 mg/kg i.v., read-out: Liver to Plasma Ratio): 202
Cmax ([5]; 6 mg/kg i.v.): 4.3 µM
Cmax ([5]; 15 mg/kg i.v.): 4.7 µM
fraction unbound at 6 h, 10 µM (in vitro): 0.0003
toxicity limiting the dose [12]: observed toxicity
stimulation of CP-I transport in human MRP2 vesicles (human MRP2): significant stimulation
Bile Flow (Mrp2 [6]; after mitoxantrone 6 mg/kg i.v.): 1.05 ± 0.11 mL/h
Bile Flow (Mrp2 [6]; after mitoxantrone 15 mg/kg i.v.): 1.38 ± 0.56 mL/h
Mrp2-mediated CP-I transport in vivo (biliary clearance, cumulative amount in bile) before and after treatment (Mrp2 [6]; result in words): no significant difference
biliary excretion of CP-I and III (Mrp2 [6]; mitoxantrone 6 mg/kg, between 0.25 and 0.5 h, result in words): significant increase
biliary secretion of CP-I (Mrp2 [6]; mitoxantrone 15 mg/kg, from 0.33 to 1.25 h, result in words): decreased
